Measurements from publication PMC9518264, “Design and synthesis of novel quinazolinone-based derivatives as EGFR inhibitors with antitumor activity” (Journal of Enzyme Inhibition and Medicinal Chemistry, 2022).

Assays:
IGROV1 = experiment: cells; assay type: cell-based; conditions: Homo sapiens, IGROV-1, read-out: growth inhibition % (GI%)
HCT-15 = experiment: cells; assay type: cell-based; conditions: Homo sapiens, HCT-15, read-out: growth inhibition % (GI%)
NCI/ADR-RES = experiment: cells; assay type: cell-based; conditions: Homo sapiens, read-out: growth inhibition % (GI%)
HCC-2998 = experiment: cells; assay type: cell-based; conditions: Homo sapiens, HCC 2998, read-out: growth inhibition % (GI%)
A498 = experiment: cells; assay type: cell-based; conditions: Homo sapiens, A498, read-out: growth inhibition % (GI%)
OVCAR-8 = experiment: cells; assay type: cell-based; conditions: Homo sapiens, OVCAR-8, read-out: growth inhibition % (GI%)
NCI-H522 = experiment: cells; assay type: cell-based; conditions: Homo sapiens, NCI-H522, read-out: growth inhibition % (GI%)
ACHN = experiment: cells; assay type: cell-based; conditions: Homo sapiens, read-out: growth inhibition % (GI%)
U251 = experiment: cells; assay type: cell-based; conditions: Homo sapiens, U-251, read-out: growth inhibition % (GI%)
SK-MEL-2 = experiment: cells; assay type: cell-based; conditions: Homo sapiens, SK-MEL-2, read-out: growth inhibition % (GI%)
HCT-116 = experiment: cells; assay type: cell-based; conditions: Homo sapiens, HCT-116, read-out: growth inhibition % (GI%)
SF-268 = experiment: cells; assay type: cell-based; conditions: Homo sapiens, SF-268, read-out: growth inhibition % (GI%)
MOLT-4 = experiment: cells; assay type: cell-based; conditions: Homo sapiens, MOLT-4, read-out: growth inhibition % (GI%)
SF-295 = experiment: cells; assay type: cell-based; conditions: Homo sapiens, SF-295, read-out: growth inhibition % (GI%)
COLO-205 = experiment: cells; assay type: cell-based; conditions: Homo sapiens, COLO 205, read-out: growth inhibition % (GI%)
A549/ATCC = experiment: cells; assay type: cell-based; conditions: Homo sapiens, A549, read-out: growth inhibition % (GI%)
DU-145 = experiment: cells; assay type: cell-based; conditions: Homo sapiens, DU-145, read-out: growth inhibition % (GI%)
EKVX = experiment: cells; assay type: cell-based; conditions: Homo sapiens, read-out: growth inhibition % (GI%)
NCI-H322M = experiment: cells; assay type: cell-based; conditions: Homo sapiens, read-out: growth inhibition % (GI%)
OVCAR-5 = experiment: cells; assay type: cell-based; conditions: Homo sapiens, OVCAR-5, read-out: growth inhibition % (GI%)
LOX IMIV = experiment: cells; assay type: cell-based; conditions: Homo sapiens, 60 cell, read-out: growth inhibition % (GI%)
OVCAR-4 = experiment: cells; assay type: cell-based; conditions: Homo sapiens, OVCAR-4, read-out: growth inhibition % (GI%)
SF-539 = experiment: cells; assay type: cell-based; conditions: Homo sapiens, SF-539, read-out: growth inhibition % (GI%)
SK-OV-3 = experiment: cells; assay type: cell-based; conditions: Homo sapiens, SK-OV-3, read-out: growth inhibition % (GI%)
BT-549 = experiment: cells; assay type: cell-based; conditions: Homo sapiens, BT-549, read-out: growth inhibition % (GI%)
HOP-92 = experiment: cells; assay type: cell-based; conditions: Homo sapiens, HOP-92, read-out: growth inhibition % (GI%)
NCI-H226 = experiment: cells; assay type: cell-based; conditions: Homo sapiens, NCI-H226, read-out: growth inhibition % (GI%)
NCI-H460 = experiment: cells; assay type: cell-based; conditions: Homo sapiens, NCI-H460, read-out: growth inhibition % (GI%)
HL-60(TB) = experiment: cells; assay type: cell-based; conditions: Homo sapiens, HL-60, read-out: growth inhibition % (GI%)
PC-3 = experiment: cells; assay type: cell-based; conditions: Homo sapiens, PC-3, read-out: growth inhibition % (GI%)
SK-MEL-5 = experiment: cells; assay type: cell-based; conditions: Homo sapiens, SK-MEL-5, read-out: growth inhibition % (GI%)
MDA-MB-468 = experiment: NCI 60 cell line antiproliferative screening (SRB), Breast cancer; conditions: Homo sapiens, MDA-MB-468, read-out: growth inhibition % (GI%)
786-0 = experiment: cells; assay type: cell-based; conditions: Homo sapiens, 786-0, read-out: growth inhibition % (GI%)
MCF7 = experiment: cells; assay type: cell-based; conditions: Homo sapiens, MCF7, read-out: growth inhibition % (GI%)
MALME-3M = experiment: cells; assay type: cell-based; conditions: Homo sapiens, Malme-3M, read-out: growth inhibition % (GI%)
UACC-257 = experiment: cells; assay type: cell-based; conditions: Homo sapiens, UACC-257, read-out: growth inhibition % (GI%)
CCRF-CEM = experiment: cells; assay type: cell-based; conditions: Homo sapiens, read-out: growth inhibition % (GI%)
T-47D = experiment: cells; assay type: cell-based; conditions: Homo sapiens, T47D, read-out: growth inhibition % (GI%)
OVCAR-3 = experiment: NCI 60 cell line antiproliferative screening (SRB), Ovarian cancer; conditions: Homo sapiens, OVCAR-3, read-out: growth inhibition % (GI%)
KM12 = experiment: cells; assay type: cell-based; conditions: Homo sapiens, KM12, read-out: growth inhibition % (GI%)
SNB-19 = experiment: cells; assay type: cell-based; conditions: Homo sapiens, SNB-19, read-out: growth inhibition % (GI%)
SNB-75 = experiment: cells; assay type: cell-based; conditions: Homo sapiens, SNB-75, read-out: growth inhibition % (GI%)
HOP-62 = experiment: cells; assay type: cell-based; conditions: Homo sapiens, HOP-62, read-out: growth inhibition % (GI%)
TK-10 = experiment: cells; assay type: cell-based; conditions: Homo sapiens, TK-10, read-out: growth inhibition % (GI%)
SN12C = experiment: cells; assay type: cell-based; conditions: Homo sapiens, read-out: growth inhibition % (GI%)
[1] = tested on: panel of 60 tumour cell lines; experiment: NCI 60 cell line antiproliferative screening (SRB), whole panel or subpanels (means, ranges, words); assay type: cell-based, human; conditions: Homo sapiens, 60 cell, mean over the cell line panel; 10 μM; read-out: Mean growth inhibition % (mean GI%)

How did the inhibition at 10 µM (IGROV1) turn out when `O=C(CSc1nc2ccccc2c(=O)n1-c1ccc(Cl)cc1)NN=Cc1ccc(N2CCCCC2)cc1` [6j, 2-((3–(4-chlorophenyl)-4-oxo-3,4-dihydroquinazolin-2-yl)thio)-N'-(4-(piperidin-1-yl)benzylidene) acetohydrazide] was run?
Its inhibition at 10 µM is 44.5%.

And the inhibition at 10 µM (HCT-15)?
Its inhibition at 10 µM is 32.2%.

And the inhibition at 10 µM (NCI/ADR-RES)?
The inhibition at 10 µM was 60.1%.

What about the inhibition at 10 µM (HCC-2998) of the same compound?
Its inhibition at 10 µM is under 15%.

And the inhibition at 10 µM (A498)?
Its inhibition at 10 µM is 21.5%.

And the inhibition at 10 µM (OVCAR-8)?
The inhibition at 10 µM was 34.7%.

What about the inhibition at 10 µM (NCI-H522) of the same compound?
The inhibition at 10 µM was under 15%.

What about the inhibition at 10 µM (ACHN) of the same compound?
The inhibition at 10 µM was 82.6%.

What about the inhibition at 10 µM (U251) of the same compound?
Its inhibition at 10 µM is 49.4%.

And the inhibition at 10 µM (SK-MEL-2)?
Its inhibition at 10 µM is under 15%.

What about the inhibition at 10 µM (HCT-116) of the same compound?
Its inhibition at 10 µM is 63.1%.

What about the inhibition at 10 µM (SF-268) of the same compound?
Its inhibition at 10 µM is 65.3%.

And the inhibition at 10 µM (MOLT-4)?
Its inhibition at 10 µM is under 15%.

And the inhibition at 10 µM (SF-295)?
Its inhibition at 10 µM is 23.6%.

What about the inhibition at 10 µM (COLO-205) of the same compound?
The inhibition at 10 µM was 17.9%.

And the inhibition at 10 µM (A549/ATCC)?
Its inhibition at 10 µM is 50.6%.

What about the inhibition at 10 µM (DU-145) of the same compound?
The inhibition at 10 µM was 70.9%.

And the inhibition at 10 µM (EKVX)?
Its inhibition at 10 µM is 17.9%.

What about the inhibition at 10 µM (NCI-H322M) of the same compound?
The inhibition at 10 µM was 23%.

And the inhibition at 10 µM (OVCAR-5)?
The inhibition at 10 µM was 23.1%.

And the inhibition at 10 µM (LOX IMIV)?
Its inhibition at 10 µM is 56.5%.

What about the inhibition at 10 µM (OVCAR-4) of the same compound?
Its inhibition at 10 µM is 41.4%.

And the inhibition at 10 µM (SF-539)?
Its inhibition at 10 µM is 58.7%.

And the inhibition at 10 µM (SK-OV-3)?
The inhibition at 10 µM was 69.9%.

What about the inhibition at 10 µM (BT-549) of the same compound?
The inhibition at 10 µM was under 15%.

What about the inhibition at 10 µM (HOP-92) of the same compound?
Its inhibition at 10 µM is 37.7%.

And the inhibition at 10 µM (NCI-H226)?
Its inhibition at 10 µM is 61.8%.

And the inhibition at 10 µM (NCI-H460)?
The inhibition at 10 µM was 90.3%.

What about the inhibition at 10 µM (HL-60(TB)) of the same compound?
The inhibition at 10 µM was under 15%.

And the inhibition at 10 µM (PC-3)?
Its inhibition at 10 µM is 21.4%.

What about the inhibition at 10 µM (SK-MEL-5) of the same compound?
Its inhibition at 10 µM is under 15%.

What about the inhibition at 10 µM (MDA-MB-468) of the same compound?
Its inhibition at 10 µM is 20.5%.

What about the inhibition at 10 µM (786-0) of the same compound?
The inhibition at 10 µM was 92.8%.

And the inhibition at 10 µM (MCF7)?
The inhibition at 10 µM was 32.5%.

And the inhibition at 10 µM (MALME-3M)?
The inhibition at 10 µM was 35.8%.

And the inhibition at 10 µM (UACC-257)?
Its inhibition at 10 µM is under 15%.

What about the inhibition at 10 µM (CCRF-CEM) of the same compound?
Its inhibition at 10 µM is under 15%.

And the inhibition at 10 µM (T-47D)?
The inhibition at 10 µM was 25.4%.

What about the inhibition at 10 µM (OVCAR-3) of the same compound?
Its inhibition at 10 µM is 67.2%.

What about the inhibition at 10 µM (KM12) of the same compound?
The inhibition at 10 µM was 3.59%.

And the inhibition at 10 µM (SNB-19)?
The inhibition at 10 µM was 56.8%.

And the inhibition at 10 µM (SNB-75)?
The inhibition at 10 µM was 20.1%.

And the inhibition at 10 µM (HOP-62)?
The inhibition at 10 µM was 81.6%.

What about the inhibition at 10 µM (TK-10) of the same compound?
Its inhibition at 10 µM is under 15%.

What about the inhibition at 10 µM (SN12C) of the same compound?
The inhibition at 10 µM was 37.6%.

What about the inhibition at 10 µM [1] of the same compound?
Its inhibition at 10 µM is 34.2%.
